Measured values from patent publication US12220420B2, “Combination therapy for cancer treatment” (Galera Labs, LLC, priority 2016, dated 2025).

Tests used:
[1] = system: breast cancer cells (MB231); experiment: Total glutathione levels, DTNB recycling spectrophotometric assay; type: cell-based, human; conditions: 50 μM or 100 μM BSO, 24 hours
Description: (§1) The effect of buthionine sulfoximine (BSO) on reduced glutathione (GSH) levels in breast cancer cells (MB231) and lung cancer cells (H292) was examined. The cells were plated and grown to 75% confluency, then treated with either 50 μM BSO or 100 μM BSO for another 24 hours before harvesting for analysis for total glutathione levels using a DTNB recycling spectrophotometric assay.

[2] = system: lung cancer cells (H292); experiment: as above; type: cell-based, human; conditions: 50 μM or 100 μM BSO, 24 hours
Description: as §1

[3] = system: HN5 (HNSCC) tumors; experiment: Animal model of squamous cell carcinoma of the head and neck with or without radiation; type: in vivo
Description: The effect of GC4419 was tested in vivo on animal models of squamous cell carcinoma of the head and neck (HNSCC). GC4419 was delivered as a 24 mg/kg daily dose delivered as an ip bolus on 5 consecutive days starting 1 hour prior to irradiation. Radiation was delivered as a single dose of 12 Gy using a 10 mm collimated beam aimed at the center of the tumor.

[4] = system: Subcutaneous H1299 tumors; experiment: Non-small cell lung cancer tumor xenograft model with or without radiation; type: in vivo
Description: The effect of the pentaaza macrocyclic ring complex GC4419 was tested in vivo on non-small cell lung cancer (NSCLC) in a tumor xenograft model. Subcutaneous H1299 tumors were subjected to biologically equivalent fractionation schemes of 18 Gy×1 dose or 2 Gy×16 doses (delivered on consecutive days), 1 hour following an initial injection of 24 mg/kg GC4419. GC4419 was also administered on the next 4 consecutive days after the first injection (given, in the case of the 2 Gy fraction dose experiment, 1 hour prior to each of those 4 days' radiation treatments).

[5] = Anderson 2015; cited from earlier work
[6] = Tuder et al. 2003; cited from earlier work
[7] = system: human lung cancer cells (H292); experiment: PeroxyOrange-1 (PO-1) oxidation as a measure of steady-state H2O2; type: cell-based
Description: The effects on H2O2 fluxes of a pentaaza macrocyclic ring complex (GC4419) provided in combination with inhibitors of H2O2 metabolism were tested in human lung cancer cells (H292). The H292 cells were treated with 20 μM GC4419 for 3 and 24 hours, and PeroxyOrange-1 (PO-1) oxidation was monitored as a measure of steady-state H2O2. […] Also, the combination of GC4419+BSO+AT for 3 hours (B-AT 4419 3) and 24 hours (B-AT 4419 24) further increased PO-1 oxidation to 3-fold greater than a control. The PO-1 oxidation was also monitored in dosing the cells three times with 100 μM hydrogen peroxide (H2O2).

[8] = system: H1299 cancer cells; experiment: Clonogenic assay of FIG. 4, normalized surviving fraction; type: cell-based, human; conditions: 20 μM GC4419, FIG. 4, control also about 1
Description: The effect of the pentaaza macrocyclic ring complex GC4419 in combination with inhibitors of hydrogen peroxide metabolism was tested on breast cancer cells (MB231) and non-small cell lung cancer cells (H1299) versus normal cells (HMEC normal mammary epithelial cells and HBEpC normal bronchial epithelial cells). The cells were plated and grown exponentially for 2 days. Either or both of 20 μM of the CG4419 compound and 100 μM BSO were added at time 0 of exposure, and 500 nM Auranofin (a thioredoxin reductase inhibitor) was added 48 hours after, for 15 minutes prior to a clonogenic assay.

[9] = system: breast cancer cells (MB231); experiment: 3-aminotriazole mediated inactivation of catalase (H2O2 flux); type: cell-based, human; conditions: 20 μM GC4419, MB231
Description: (§2) The effect of the pentaaza macrocyclic ring complex GC4419 in increasing levels of H2O2 in cancer cells was further tested by measuring the 3-aminotriazole mediated inactivation of catalase, using a method as described in Ahmad et al, J. Biol Chem, 280(6), 4254-4263 (2005). Briefly, head and neck cancer cells (Cal27), lung cancer cells (H1299) and breast cancer cells (MB231) were grown in 60 mm dishes, transduced with 50 MOI adCat to genetically increase catalase expression, and allowed 48 hours to recover so that the activity of catalase could increase to maximal levels. Afterwards, 50 mM AT was added for 5 minutes, which irreversibly binds to and inhibits the catalase intermediate formed in the presence of H2O2. 20 μM GC4419 was added, and cells were collected at 10 minute intervals for 60 minutes, and the inhibition of catalase was determined. A Lowry's protein assay determined the total protein concentration of individual samples. This method provides a stoichiometry of one catalase molecule being inhibited for each molecule of H2O2, thereby providing for precise measurements of changes in H2O2 flux. The results are shown in FIG. 3 (left hand side is Cal27, middle is H1299, and right hand side is MB231).

[10] = system: lung cancer cells (H1299); experiment: as above; type: cell-based, human; conditions: 20 μM GC4419, H1299
Description: as §2

[11] = system: Breast cancer cells (MB231) and lung cancer cells (H1299); experiment: Clonogenic killing in presence and absence of N-acetylcysteine (NAC); type: cell-based, human; conditions: 10 mM of NAC; 20 μM GC4419, 100 μM BSO, 500 nM Au
Description: Breast cancer cells (MB231) and lung cancer cells (H1299) were grown in culture to 75% confluence and treated with either 20 μM GC4419, or 100 μM BSO with 500 nM Au added after 48 hours, or all of GC4419, BSO and Au. The cancer cells were also treated with the same sets of compounds, but with the further addition of 10 mM of NAC. […] Thus, the results support that pentaaza macrocyclic ring complexes such as GC4419 combined with inhibitors of hydrogen peroxide metabolism can selectively kill cancer cells versus normal cells via oxidative stress correlated with increase H2O2 fluxes.

[12] = system: Non-small cell lung cancer cells (H1299); experiment: Clonogenic cell survival assay, auranofin alone and with ionizing radiation; type: cell-based, human
Description: The effects of an inhibitor of hydrogen peroxide metabolism, auranofin (a thioredoxin reductase inhibitor), on cancer cells was tested in a clonogenic cell survival assay to determine the effects of the compound alone and in combination with ionizing radiation. Non-small cell lung cancer cells (H1299) were exponentially grown and treated with auranofin (Au) either by itself for 15 minutes, or 15 minutes prior to the first of two ionizing radiation (IR) doses (2 Gy each) spaced 24 hours apart. After the last ionizing radiation dose, the cells were trypsinized, counted, replated at varying lower densities and incubated for 12 days. Plates were stained and counted for clonogenic survival assays. […] Furthermore, treatment with auranofin sensitized the cancer cells to radiation, thereby increasing the efficiency of the ionizing radiation in cell killing (Auranofin+IR) as compared to administration of ionizing radiation alone (IR 4 Gy).

[13] = 24 mg/kg daily ip bolus, 5 consecutive days
[14] = 24 mg/kg GC4419, 5 consecutive days

CCCCS(=N)(=O)CCC(N)C(=O)O (stereo not shown) [BSO, buthionine sulfoximine]
glutathione levels [1]: significantly decreases | glutathione levels [2]: significantly decreases

[Cl][Mn][Cl].c1cc2nc(c1)CN[C@H]1CCCC[C@@H]1NCCN[C@H]1CCCC[C@@H]1NC2 [GC4419]
tumor growth [3, 13]: significant growth delay | tumor volumes as compared to a control [3, 13]: reduced tumor volumes | tumor growth, combination with radiation ([3]; 24 mg/kg daily ×5 starting 1 hour prior to single dose of 12 Gy): even greater growth delays | response of NSCLC tumors to radiation ([4]; 24 mg/kg GC4419 1 hour before 18 Gy×1 or 2 Gy×16): significantly enhancing radiation induced growth delay, and survival | anti-cancer effect, cancer size as compared to the control [4, 14]: reduced cancer size | survival as compared to the control [4, 14]: improved survival | oral mucositis [5]: reduce oral mucositis | VEGFr inhibitor-induced pulmonary disease [6]: attenuate VEGFr inhibitor-induced pulmonary disease | increase in PO-1 oxidation as compared to the control ([7]; 20 μM GC4419, 3 hours): 1.5 fold | increase in PO-1 oxidation as compared to the control ([7]; 20 μM GC4419, 24 hours): 1.5 fold | normalized surviving cell fraction (on a log scale) [8]: about 1 | steady-state levels of intracellular H2O2 flux, normalized to the control [9]: significant increases | steady-state levels of intracellular H2O2 flux, normalized to the control [10]: significant increases

CC(=O)N[C@@H](CS)C(=O)O [NAC, N-acetylcysteine]
effect of NAC on cell killing caused by GC4419+Au and/or BSO [11]: nearly completely inhibited the cell killing

CC(=O)OCC1OC([S-])C(OC(C)=O)C(OC(C)=O)C1OC(C)=O.CCP(CC)CC.[Au+] (stereo not shown) [auranofin, gold(+1)cation; 3,4,5-triacetyloxy-6-(acetyloxymethyl)oxane-2-thiolate; triethylphosphanium]
normalized surviving cell fraction ([12]; 250 nM of auranofin, FIG. 6): over 0.5 | cell killing as compared to a control ([12]; 250 nM, 15 minutes): significant cell killing | response of cancer cells to ionizing radiation ([12]; 15 minutes prior to first of two IR doses (2 Gy each), versus IR 4 Gy alone): significantly increases
